This note sets out measurements from patent publication US20070155835A1, “USE OF ORTHO-PH[…]/OR DERIVATIVES THEREOF FOR INHIBITING THE ASEXUAL REPRODUCTION OF FUNGI” (Henkel Kommanditgesellschaft auf Aktien (Henkel KGaA), priority 2004, published 2007).

Experiment [1] concerns Aspergillus niger (DSM1988). The experiment in a line: Sporulation of Aspergillus niger on wort agar plates containing active substance, assessed visually. In kind it is cell-based. The method, then: (§1) The surfaces of wort agar plates were each contaminated with 100 μl of a germ suspension (10^3 CFU/ml) of Aspergillus niger (DSM1988). Different quantities of active substance (solutions in ethanol, see table for final concentrations) had previously been added to the agar plates. The plates were incubated for 3 days at 25° C. Sporulation was assessed visually, and the sporulation rate (in %) was determined.
as §1

In experiment [2] the test system is Aspergillus niger (DSM1988). Nature of the experiment: Growth of the test strain on wort agar plates containing active substance. In kind it is cell-based. The procedure: The surfaces of wort agar plates were each contaminated with 100 μl of a germ suspension (10^3 CFU/ml) of Aspergillus niger (DSM1988). Different quantities of active substance (solutions in ethanol, see table for final concentrations) had previously been added to the agar plates. The plates were incubated for 3 days at 25° C. Sporulation was assessed visually, and the sporulation rate (in %) was determined. […] A growth-inhibiting or germ-killing effect occurred only at a concentration of 0.05 wt % OPP.
as §1

For the compound `CC(C)=CCCC(C)=CCCC(C)=CCO` [Farnesol, reference compound], the “Sporulation [%]” value in experiment [1] (Farnesol concentration 25 μM, comparative experiment) is 90%; in experiment [1] (Farnesol concentration 62.5 μM, comparative experiment), 75%; in experiment [1] (Farnesol concentration 125 μM, comparative experiment), 50%; in experiment [1] (Farnesol concentration 250 μM, comparative experiment) it was 10%; in experiment [1] (Farnesol concentration 500 μM, comparative experiment), 0%.

For `Oc1ccccc1-c1ccccc1` [OPP, Ortho-Phenylphenol], in experiment [2] (wort agar, 3 days at 25° C.), the “Concentration at which a growth-inhibiting or germ-killing effect occurred” value came to 0.05 wt %. The “Sporulation [%]” value is recorded as 95% in experiment [1] (OPP concentration 0.00001 %, wort agar, 3 days at 25° C.); 95% in experiment [1] (OPP concentration 0.00005 %, wort agar, 3 days at 25° C.); 85% in experiment [1] (OPP concentration 0.0001 %, wort agar, 3 days at 25° C.); 10% in experiment [1] (OPP concentration 0.0005 %, wort agar, 3 days at 25° C.); 0% in experiment [1] (OPP concentration 0.001 %, wort agar, 3 days at 25° C.); 0% in experiment [1] (OPP concentration 0.005 %, wort agar, 3 days at 25° C.). Moreover, the “Sporulation [%]” value in experiment [1] (OPP concentration 0.05 %, wort agar, 3 days at 25° C.) is recorded as “no growth”; in experiment [1] (OPP concentration 0.1 %, wort agar, 3 days at 25° C.), “no growth”; in experiment [1] (OPP concentration 1.0 %, wort agar, 3 days at 25° C.), “no growth”. Also, in experiment [1] (no growth-inhibiting effect at that concentration), the “Concentration completely suppressing sporulation relative to growth-inhibiting or germ-killing concentration” value is recorded as “fifty times lower”. In addition, the “Utilization concentration at which sporulation was completely suppressed” value in experiment [1] (wort agar, 3 days at 25° C.) was 0.001 wt %.

As to “Ortho-Phenylphenol/Silicic Acid Ester [OPP/SAE]”, the “Effect of the concentrations used on growth of the test strain” value in experiment [2] (concentrations of the tables, unless otherwise indicated in the tables) is “did not prevent growth of the test strain”. Further, the “Sporulation [%]” value in experiment [1] (OPP/SEA concentration 0.00001 %, wort agar, 3 days at 25° C.) came out at 95%; in experiment [1] (OPP/SEA concentration 0.00005 %, wort agar, 3 days at 25° C.) it was 95%; in experiment [1] (OPP/SEA concentration 0.0001 %, wort agar, 3 days at 25° C.), 95%; in experiment [1] (OPP/SEA concentration 0.0005 %, wort agar, 3 days at 25° C.), 50%; in experiment [1] (OPP/SEA concentration 0.001 %, wort agar, 3 days at 25° C.), 25%; in experiment [1] (OPP/SEA concentration 0.005 %, wort agar, 3 days at 25° C.), 0%. Also, the “Sporulation [%]” value in experiment [1] (OPP/SEA concentration 0.01 %, wort agar, 3 days at 25° C.) turned out to be 0%. Moreover, the “Utilization concentration at which sporulation was completely suppressed” value in experiment [1] (wort agar, 3 days at 25° C.) is on record as 0.005 wt %.
